Source: ChEMBL document CHEMBL3045879, “Isolation of long-chain esters from the rhizome of Polygonatum verticillatum by potent tyrosinase inhibition” (Med Chem Res, 2013)

Biological target: T1, Tyrosinase (Agaricus bisporus, UniProt O42713)
T1 sequence (O42713 whole entry): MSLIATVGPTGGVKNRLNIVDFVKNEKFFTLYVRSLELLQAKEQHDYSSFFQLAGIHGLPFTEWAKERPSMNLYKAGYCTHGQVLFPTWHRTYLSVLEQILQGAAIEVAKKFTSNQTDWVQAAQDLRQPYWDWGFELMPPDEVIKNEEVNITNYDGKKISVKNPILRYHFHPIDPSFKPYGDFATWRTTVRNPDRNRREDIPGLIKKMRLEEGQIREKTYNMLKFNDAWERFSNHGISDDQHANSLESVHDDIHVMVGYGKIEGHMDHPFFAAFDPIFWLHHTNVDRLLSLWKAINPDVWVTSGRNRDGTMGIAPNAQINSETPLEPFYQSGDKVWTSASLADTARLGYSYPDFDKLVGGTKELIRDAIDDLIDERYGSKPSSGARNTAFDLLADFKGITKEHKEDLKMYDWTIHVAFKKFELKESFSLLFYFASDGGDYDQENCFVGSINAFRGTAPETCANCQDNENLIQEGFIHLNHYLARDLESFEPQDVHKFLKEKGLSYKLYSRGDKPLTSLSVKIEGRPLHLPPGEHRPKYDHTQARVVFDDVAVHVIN
Assay: Inhibition of Agaricus bisporus (mushroom) tyrosinase assessed as decrease in dopachrome formation using L-DOPA as substrate preincubated with enzyme for 10 min prior to substrate addition measured for 10 min by microplate reader analysis

IC50 [µM] | SMILES
9.45 | CCCCCCCCCCCCCCC(=O)OCC(O)CO (configuration not stated) [2',3'-DIHYDROXY PROPYL PENTADECANOATE]
22.3 | CCCCCCCCCCCCCCC(=O)OCCC [PROPYL PENTADECANOATE]
